Test results from paper PMC12136037, “Type II kinase inhibitors that target Parkinson’s disease–associated LRRK2” (Science Advances, 2025).

Key:
Assay in all cases: DSF 100 kinase selectivity screen;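 as to dTm: compound tested at 20 µM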
Assay type in all cases: binding
[1] = target: T1, ~100 representative kinases (Homo sapiens, UniProt P33981); settings: Protein TTK; DSF; average of three replicates
T1 construct: Recombinant protein kinase domains with a concentration of 2 μM
T1 sequence (P33981 1-857): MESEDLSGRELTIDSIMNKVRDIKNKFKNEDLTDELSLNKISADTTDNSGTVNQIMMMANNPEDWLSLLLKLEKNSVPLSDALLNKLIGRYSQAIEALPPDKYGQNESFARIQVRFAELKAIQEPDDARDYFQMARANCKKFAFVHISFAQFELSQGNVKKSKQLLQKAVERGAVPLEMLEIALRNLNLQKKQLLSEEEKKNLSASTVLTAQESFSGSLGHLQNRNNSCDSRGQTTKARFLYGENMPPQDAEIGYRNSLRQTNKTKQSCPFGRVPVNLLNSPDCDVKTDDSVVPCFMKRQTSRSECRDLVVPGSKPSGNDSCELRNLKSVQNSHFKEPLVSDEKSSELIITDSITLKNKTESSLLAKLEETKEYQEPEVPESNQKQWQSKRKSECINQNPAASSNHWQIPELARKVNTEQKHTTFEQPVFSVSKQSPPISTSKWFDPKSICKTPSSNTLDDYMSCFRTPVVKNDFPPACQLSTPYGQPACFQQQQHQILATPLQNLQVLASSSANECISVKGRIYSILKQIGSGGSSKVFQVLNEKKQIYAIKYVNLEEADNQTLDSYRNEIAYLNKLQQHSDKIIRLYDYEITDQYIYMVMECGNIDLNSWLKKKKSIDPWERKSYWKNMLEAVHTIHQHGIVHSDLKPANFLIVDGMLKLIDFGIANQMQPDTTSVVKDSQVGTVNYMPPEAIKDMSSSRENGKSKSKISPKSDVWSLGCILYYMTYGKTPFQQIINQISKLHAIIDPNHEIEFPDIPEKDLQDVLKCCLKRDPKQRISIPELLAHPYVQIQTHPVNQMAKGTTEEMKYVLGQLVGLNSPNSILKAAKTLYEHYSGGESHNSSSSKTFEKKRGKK
Summary of the method: (§1)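 Each kinase domain, at 2 μM, is mixed with 20 μM test compound and SYPRO Orange in Hepes (20 mM, pH 7.5) with 500 mM NaCl. Temperature is then raised at 3°C/min and fluorescence-monitored unfolding yields the melting temperature change, ΔTm in degrees Celsius.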

[2] = system: ~100 representative kinases; settings: for dTm: Protein BRD, average of three replicates; for # >5K: number of proteins of the DSF panel with dTm >5K
Summary of the method: as §1

[3] = target: T2, ~100 representative kinases (Homo sapiens, UniProt Q96NX5); settings: Protein CAMK1G; average of three replicates
T2 construct: Recombinant protein kinase domains with a concentration of 2 μM
Summary of the method: as §1

[4] = target: T3, ~100 representative kinases (Homo sapiens, UniProt P54762); settings: Protein EPHB1; average of three replicates
T3 construct: Recombinant protein kinase domains with a concentration of 2 μM
T3 sequence (P54762 18-984): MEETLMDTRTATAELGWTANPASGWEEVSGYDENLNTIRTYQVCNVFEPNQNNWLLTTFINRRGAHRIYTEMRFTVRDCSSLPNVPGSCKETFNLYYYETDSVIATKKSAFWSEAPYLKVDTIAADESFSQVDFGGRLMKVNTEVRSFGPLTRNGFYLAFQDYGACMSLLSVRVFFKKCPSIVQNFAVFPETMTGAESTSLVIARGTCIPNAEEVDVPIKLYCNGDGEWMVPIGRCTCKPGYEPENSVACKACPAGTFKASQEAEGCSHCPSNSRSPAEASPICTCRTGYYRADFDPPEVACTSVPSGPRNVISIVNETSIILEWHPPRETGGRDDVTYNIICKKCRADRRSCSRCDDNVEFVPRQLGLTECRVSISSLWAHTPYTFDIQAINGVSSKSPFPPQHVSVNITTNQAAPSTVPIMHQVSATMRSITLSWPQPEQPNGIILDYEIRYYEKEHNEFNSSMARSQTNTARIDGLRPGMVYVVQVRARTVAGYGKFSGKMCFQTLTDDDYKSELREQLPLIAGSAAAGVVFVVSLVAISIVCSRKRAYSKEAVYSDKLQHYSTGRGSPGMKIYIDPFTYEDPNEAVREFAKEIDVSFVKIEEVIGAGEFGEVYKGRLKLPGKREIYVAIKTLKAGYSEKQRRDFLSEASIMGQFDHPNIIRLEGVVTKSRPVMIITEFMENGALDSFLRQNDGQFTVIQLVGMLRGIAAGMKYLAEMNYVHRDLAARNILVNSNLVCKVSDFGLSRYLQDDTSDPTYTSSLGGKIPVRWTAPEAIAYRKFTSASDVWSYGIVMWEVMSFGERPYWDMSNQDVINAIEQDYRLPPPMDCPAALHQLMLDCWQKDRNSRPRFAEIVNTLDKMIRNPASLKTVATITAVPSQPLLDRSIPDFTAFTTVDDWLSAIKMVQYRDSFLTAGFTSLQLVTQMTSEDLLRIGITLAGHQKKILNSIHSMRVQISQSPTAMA
Summary of the method: as §1

[5] = target: T4, ~100 representative kinases (Homo sapiens, UniProt O15264); settings: protein MAPK13; average of three replicates
T4 construct: Recombinant protein kinase domains with a concentration of 2 μM
T4 sequence (O15264 1-365): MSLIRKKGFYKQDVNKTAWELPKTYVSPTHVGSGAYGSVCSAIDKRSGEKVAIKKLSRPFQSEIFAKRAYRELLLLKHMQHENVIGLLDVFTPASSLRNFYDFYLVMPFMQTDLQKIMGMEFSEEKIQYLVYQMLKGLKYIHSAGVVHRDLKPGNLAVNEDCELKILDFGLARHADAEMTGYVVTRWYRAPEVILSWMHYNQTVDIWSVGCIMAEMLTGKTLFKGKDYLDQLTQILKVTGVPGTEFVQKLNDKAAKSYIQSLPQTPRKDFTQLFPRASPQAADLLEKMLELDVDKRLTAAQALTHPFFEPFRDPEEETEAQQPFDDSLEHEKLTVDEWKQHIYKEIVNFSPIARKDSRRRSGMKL
Summary of the method: as §1

[6] = target: T5, ~100 representative kinases (Homo sapiens, UniProt Q15375); settings: Protein EPHA7; average of three replicates
T5 construct: Recombinant protein kinase domains with a concentration of 2 μM
Summary of the method: as §1

[7] = number of kinases with thermal shift >5 K divided by total number of kinases screened
[8] = selectivity score: # >5K divided by # of proteins tested in the DSF panel

T2 sequence (Q96NX5 whole entry, the tested form may be a part): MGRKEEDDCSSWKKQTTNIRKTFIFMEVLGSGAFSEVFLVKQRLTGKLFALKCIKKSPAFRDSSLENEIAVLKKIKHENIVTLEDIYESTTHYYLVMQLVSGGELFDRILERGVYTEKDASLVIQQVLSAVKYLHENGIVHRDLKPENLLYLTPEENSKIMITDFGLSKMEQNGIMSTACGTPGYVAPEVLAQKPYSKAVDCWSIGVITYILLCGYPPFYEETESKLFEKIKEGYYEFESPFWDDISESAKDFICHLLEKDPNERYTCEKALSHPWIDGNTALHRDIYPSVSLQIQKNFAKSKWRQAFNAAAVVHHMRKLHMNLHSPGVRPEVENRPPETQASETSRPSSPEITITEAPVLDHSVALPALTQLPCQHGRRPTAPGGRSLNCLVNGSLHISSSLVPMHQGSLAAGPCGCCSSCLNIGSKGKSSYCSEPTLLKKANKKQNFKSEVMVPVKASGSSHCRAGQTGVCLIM
T5 sequence (Q15375 28-998): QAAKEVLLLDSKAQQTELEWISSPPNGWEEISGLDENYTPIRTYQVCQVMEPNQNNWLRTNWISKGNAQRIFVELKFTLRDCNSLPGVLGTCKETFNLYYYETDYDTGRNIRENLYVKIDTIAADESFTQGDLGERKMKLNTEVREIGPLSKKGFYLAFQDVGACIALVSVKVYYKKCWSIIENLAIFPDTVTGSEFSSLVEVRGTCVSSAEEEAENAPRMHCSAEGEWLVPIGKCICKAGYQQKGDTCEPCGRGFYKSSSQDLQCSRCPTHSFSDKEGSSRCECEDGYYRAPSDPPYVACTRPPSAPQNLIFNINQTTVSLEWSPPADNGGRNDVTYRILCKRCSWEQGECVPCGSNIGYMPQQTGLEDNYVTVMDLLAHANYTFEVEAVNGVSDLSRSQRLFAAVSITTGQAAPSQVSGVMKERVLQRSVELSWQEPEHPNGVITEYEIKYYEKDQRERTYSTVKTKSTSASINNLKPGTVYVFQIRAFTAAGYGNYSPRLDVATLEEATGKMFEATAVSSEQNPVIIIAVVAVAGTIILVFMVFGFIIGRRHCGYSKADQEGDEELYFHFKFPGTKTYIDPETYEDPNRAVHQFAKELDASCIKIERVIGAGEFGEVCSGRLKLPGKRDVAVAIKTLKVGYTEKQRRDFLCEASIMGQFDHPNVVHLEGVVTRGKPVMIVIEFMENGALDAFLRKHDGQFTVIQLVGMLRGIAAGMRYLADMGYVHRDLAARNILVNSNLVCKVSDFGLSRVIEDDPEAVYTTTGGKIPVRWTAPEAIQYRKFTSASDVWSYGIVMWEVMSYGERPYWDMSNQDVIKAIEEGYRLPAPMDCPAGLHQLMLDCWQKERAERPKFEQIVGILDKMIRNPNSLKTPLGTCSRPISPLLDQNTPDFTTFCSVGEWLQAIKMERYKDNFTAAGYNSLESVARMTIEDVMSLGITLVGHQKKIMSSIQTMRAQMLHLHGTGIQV

O=C(Nc1cccc(-c2c[nH]c3ncnc(N4CCOCC4)c23)c1)C1(C(=O)Nc2ccc(F)c(Cl)c2)CC1 [Compound 18]
dTm [1]: 8.02 K | dTm [2]: 0.45 K | S(5K) [2, 7]: 0.36 | # >5K [2]: 36 | S(5K) [2, 8]: 0.360 | dTm [3]: 3.39 K | dTm [4]: 3.41 K | dTm [5]: 12.04 K | dTm [6]: 0.26 K

COc1cc(S(C)(=O)=O)ccc1Nc1nc(N(C)C)c2c(Cl)c[nH]c2n1 [Compound 37]
dTm [1]: 7.87 K | dTm [2]: 0.52 K | S(5K) [2, 7]: 0.05 | # >5K [2]: 5 | S(5K) [2, 8]: 0.050 | dTm [3]: 1.99 K | dTm [4]: -0.51 K | dTm [5]: 0.37 K | dTm [6]: 0.12 K

O=C(Nc1cccc(-c2c[nH]c3ncnc(N4CCOCC4)c23)c1)C1(C(=O)Nc2cc(Br)c(F)cc2F)CC1 [Compound 25]
dTm [1]: 5.98 K | dTm [2]: 1.03 K | S(5K) [2, 7]: 0.10 | # >5K [2]: 10 | S(5K) [2, 8]: 0.096 | dTm [3]: 4.91 K | dTm [4]: -4.24 K | dTm [5]: 1.39 K | dTm [6]: 2.86 K

Cn1cc(-c2c[nH]c3ncnc(N4CCOCC4)c23)cc1C#N [PFE-360]
dTm [1]: 0.43 K | dTm [2]: -0.51 K | # >5K [2]: 12 | S(5K) [2, 8]: 0.118 | dTm [3]: -0.81 K | dTm [4]: -0.08 K | dTm [5]: 0.70 K | dTm [6]: -0.34 K

O=C(Nc1cccc(-c2c[nH]c3ncnc(N4CCOCC4)c23)c1)c1cccn(-c2ccc(F)cc2)c1=O [Compound 4]
dTm [1]: 3.00 K | dTm [2]: -1.99 K | S(5K) [2, 7]: 0.33 | # >5K [2]: 33 | S(5K) [2, 8]: 0.330 | dTm [3]: 1.22 K | dTm [4]: 2.81 K | dTm [5]: 12.71 K | dTm [6]: -1.83 K

Cc1ccc(C(=O)Nc2ccc(CN3CCN(C)CC3)c(C(F)(F)F)c2)cc1C#Cc1c[nH]c2ncnc(N3CCOCC3)c12 [Compound 1]
dTm [1]: 0.00 K | dTm [2]: 0.03 K | S(5K) [2, 7]: 0.20 | # >5K [2]: 21 | S(5K) [2, 8]: 0.200 | dTm [3]: 2.40 K | dTm [4]: 4.85 K | dTm [5]: 4.74 K | dTm [6]: 1.10 K

O=C(Nc1ccc(F)cc1)C1(C(=O)Nc2cccc(-c3c[nH]c4ncnc(N5CCOCC5)c34)c2)CC1 [Compound 2]
dTm [1]: 6.94 K | dTm [2]: -1.00 K | S(5K) [2, 7]: 0.28 | # >5K [2]: 28 | S(5K) [2, 8]: 0.280 | dTm [3]: 1.77 K | dTm [4]: 3.27 K | dTm [5]: 9.94 K | dTm [6]: -1.78 K

Cc1cc(NC(=O)C2(C(=O)Nc3ccc(F)cc3)CC2)cc(-c2c[nH]c3ncnc(N4CCOCC4)c23)c1 [Compound 6]
dTm [1]: 5.72 K | dTm [2]: 0.73 K | S(5K) [2, 7]: 0.13 | # >5K [2]: 13 | S(5K) [2, 8]: 0.125 | dTm [3]: 3.07 K | dTm [4]: 1.49 K | dTm [5]: 7.75 K | dTm [6]: 1.69 K

O=C(Nc1cccc(-c2c[nH]c3ncnc(N4CCOCC4)c23)c1)C1(C(=O)Nc2ccc(F)c(Br)c2F)CC1 [Compound 26]
dTm [1]: 6.98 K | S (5 K) / share of screened kinases stabilized ([2]; DSF selectivity panel, thermal shift >5 K): 14% | dTm [2]: 1.43 K | S(5K) [2, 7]: 0.14 | # >5K [2]: 15 | S(5K) [2, 8]: 0.144 | dTm [3]: 4.69 K | dTm [4]: -6.10 K | dTm [5]: 4.55 K | dTm [6]: 1.95 K

Cc1cc(F)ccc1NC(=O)C1(C(=O)Nc2cccc(-c3c[nH]c4ncnc(N5CCOCC5)c34)c2)CC1 [Compound 24]
dTm [1]: 2.46 K | dTm [2]: -0.87 K | S(5K) [2, 7]: 0.12 | # >5K [2]: 12 | S(5K) [2, 8]: 0.120 | dTm [3]: 0.49 K | dTm [4]: 1.63 K | dTm [5]: 6.95 K | dTm [6]: -2.57 K

CCSc1nc(NC)c2c(-c3cccc(NC(=O)Nc4cc(C(C)(C)C)nn4-c4ccc(C)cc4)c3)c[nH]c2n1 [Compound 32]
dTm [1]: 6.59 K | dTm [2]: -0.35 K | number of kinases stabilized (>5 K) ([2]; Rebastinib 96 kinases screened, RN341 103 kinases screened): 10 | S(5K) [2, 7]: 0.10 | # >5K [2]: 10 | S(5K) [2, 8]: 0.097 | dTm [3]: 0.27 K | dTm [4]: 0.21 K | dTm [5]: 9.18 K | dTm [6]: 0.38 K

O=C(Nc1cccc(-c2c[nH]c3ncnc(N4CCOCC4)c23)c1)C1(C(=O)Nc2cccc3c2CCC3)CC1 [Compound 11]
dTm [1]: 6.04 K | dTm [2]: 1.00 K | S(5K) [2, 7]: 0.15 | # >5K [2]: 16 | S(5K) [2, 8]: 0.154 | dTm [3]: 2.69 K | dTm [4]: -11.24 K | dTm [5]: 6.18 K | dTm [6]: 1.36 K

CCc1ccc(NC(=O)C2(C(=O)Nc3cccc(-c4c[nH]c5ncnc(N6CCOCC6)c45)c3)CC2)cc1 [Compound 15]
dTm [1]: 6.77 K | dTm [2]: -2.47 K | S(5K) [2, 7]: 0.23 | # >5K [2]: 23 | S(5K) [2, 8]: 0.230 | dTm [3]: 1.75 K | dTm [4]: 3.72 K | dTm [5]: 8.81 K | dTm [6]: -2.17 K

COc1ccc(NC(=O)C2(C(=O)Nc3cccc(-c4c[nH]c5ncnc(N6CCOCC6)c45)c3)CC2)cc1 [Compound 16]
dTm [1]: 3.48 K | dTm [2]: -2.19 K | S(5K) [2, 7]: 0.10 | # >5K [2]: 10 | S(5K) [2, 8]: 0.100 | dTm [3]: -0.76 K | dTm [4]: 0.79 K | dTm [5]: 5.41 K | dTm [6]: -2.77 K

COc1cc(NC(=O)C2(C(=O)Nc3cccc(-c4c[nH]c5ncnc(N6CCOCC6)c45)c3)CC2)ccc1F [Compound 21]
dTm [1]: 7.84 K | dTm [2]: -1.43 K | S(5K) [2, 7]: 0.28 | # >5K [2]: 28 | S(5K) [2, 8]: 0.280 | dTm [3]: 1.23 K | dTm [4]: 1.66 K | dTm [5]: 11.57 K | dTm [6]: -1.98 K
